Source: patent US9265268B2, “Method of handling bananas” (priority 2009, dated 2016)

Legend:
Format in all cases: in vivo, Musa
bananas [1] = assay: Example US-1: bananas transferred to MAP after shipment
From the text: Bananas were harvested and shipped in to Ephrata, Pa., using standard commercial practices, in standard commercial shipping bags. For shipping, bags were placed in cartons; each carton held sufficient bags so that there were approximately 18.1 kg (40 lb.) of bananas in each carton.
After arrival in Ephrata, Pa., bananas were removed from the bags in which they were shipped and placed into new bags, which were either MAP (as described above) or T-bags (as described above). The new bags held approximately 1.3 kg (3 lb.) each. The new bags were twisted and secured shut. Bags were exposed to the 5-day ripening method used in Example 2 above. After ripening, the bags were transported to Spring House, Pa. in a refrigerated truck. Upon arrival, color stage of the bananas was 3.5 to 4.5. Bags were then placed into sealed tents for 12 hours at 13.3° C. […] After that 12-hour period, samples were aired for 1 hour and then kept in place at 13.3° C. (56° F.) for 10 hours and then transferred to an evaluation room, which was maintained at 17.8° C. (64° F.).
All bags remained in the evaluation room for 8 days. Bananas were visually inspected each day, whether they were still in bags or not. The bags were divided into three groups: • A. remained in the bags for 3 days, then removed from the bags for the remaining 5 days; • B. remained in the bags for 4 days, then removed from the bags for the remaining 4 days. • C. remained in the bags for 8 days, then removed on the eighth day for evaluation.

bananas [2] = assay: Example 2X: evaluation process X (extended storage at 14° C.); conditions: non-zero 1-MCP
From the text: (§1) Bananas were harvested at 13 weeks of age. Fruit bunches were separated into hands, then washed, and excess latex was removed in chlorinated water tanks using standard commercial practices. The washed hands of bananas were further broken into clusters and treated with fungicide. Clusters were placed into plastic bags; each bag held approximately 1.4 kg (3 lbs) of bananas. The bananas remained in these bags until they were removed for evaluation (see below).
(§2) At day 5 at approximately 4 pm, the bananas had reached color stage 2.5 to 3.5. Treatment groups PE-3-C, PE-10-C, MAP-3, and MAP-10 were then exposed to 1-MCP overnight at the concentrations shown above.
Some of the bananas from each group described in Example 2 were evaluated by process “X” as follows: After treatment groups PE-3-C, PE-10-C, MAP-3, and MAP-10 received exposure to 1-MCP, the bananas remained in their bags and were held at approximately 14° C. The bananas were inspected daily while they remained in the bags.

bananas [3] = assay: Example 2C: evaluation process C (22° C. after MCP); crown mold and crown rot; conditions: 7 days in bag at approx. 22° C., rating 0-3
From the text: Bananas may be inspected for the incidence of crown mold. Crown mold is observed and given a numerical rating as follows: 0 (apparently healthy and disease-free fruit); 1 (mycelia not easily detectable with naked eye, but obvious slight disease is visible on the crown); 2 (presence of some visible mycelia on the crown and moderate disease damage on the crown; 3 (clearly visible mycelia on the crown with severe disease damage on the crown).
Bananas may be inspected for the incidence of crown rot. When disease damage is apparent but no fungus is visible, crown rot is reported, with the degree of damage assessed as follows: 0 (apparently healthy and disease-free fruit); 1 (obvious slight disease is visible on the crown); 2 (moderate disease damage on the crown; 3 (severe disease damage on the crown).
as §1, §2
Some of the bananas from each group described in Example 2 were evaluated by process “C” as follows: After treatment groups PE-3-C, PE-10-C, MAP-3, and MAP-10 received exposure to 1-MCP, the bananas remained in their bags and were held at approximately 22° C. The bananas were inspected daily while they remained in the bags.
After 7 days at approximately 22° C., results were as follows: […]

bananas [4] = assay: Example US-3: comparison of production batches of MAP
From the text: Bananas were harvested and shipped to Ephrata, Pa. as described in Example US-1 above. Upon arrival, bananas were removed from poly liners and placed into one of three types of bags: • (1) T-bags (as described above) • (2) MAP bags type M (as described above) • (3) MAP bags type D (as described above). Bananas in bags were exposed to the ripening cycle described above, except that the first day (“day 0”) of the ripening cycle was omitted. The bananas that were exposed to 1-MCP received that exposure when they were at color stage 2 to 2.2.
Additionally, a group of bananas remained in their bags at 17.8° C. for 17 days after exposure to 1-MCP and were evaluated at the end of those 17 days.

bananas [5] = assay: Example US-4: placement into MAP after exposure to 1-MCP; conditions: 1000 ppb, Day #8
From the text: Bananas were harvested and shipped to Ephrata, Pa. as in Example US-1 above. The bananas were also ripened as in Example US-1, except that the bananas remained in the bags in which they were shipped (poly liners) throughout the ripening process. Some of the poly liners were exposed to 1-MCP (1000 ppb) as in Example US-1 above, while others were not. Immediately after the conclusion of the exposure to 1-MCP, bananas were removed from the poly liners, divided into bunches. Some bunches had approximately of 1.4 kg (3 lb) and were placed into T-bags as described above. Other bunches were approximately 18 kg (40 lb) and were placed into MAP type D-40 as described above, using standard layering technique that interposes layers of the bag in between layers of bananas. Then the bananas were stored and evaluated as in Example US-1. Also, the bananas were eaten, and the firmness of the pulp was evaluated along with the overall quality of the eating experience.

[6] = MAP-10: MAP bag, 1000 ppb 1-MCP
[7] = PE-10-C: PE bag, 1000 ppb 1-MCP
[8] = MAP with non-zero 1-MCP, 17 days in bags at 17.8° C., versus MAP without 1-MCP or T-bags with 1-MCP

## CC1=CC1 [1-MCP, 1-methylcyclopropene]
Bananas [1]; 1000 ppb versus 300 ppb 1-MCP in the same type of bag
  development of color and sugar spots: slower development of color and sugar spots
Bananas [1]; MAP with non-zero 1-MCP
  extension of shelf life, compared to T bags with no 1-MCP: 8 days
Bananas [1]; MAP, 300 ppb or 1000 ppb 1-MCP versus MAP with zero 1-MCP
  development of color and sugar spots after removal from bags: slower development of color and sugar spots
Bananas [1]; MAP, 300 ppb or 1000 ppb 1-MCP versus T-bags
  development of color and sugar spots: much slower development of color and sugar spots
Bananas [1]; T-bags, 300 ppb or 1000 ppb 1-MCP versus zero
  development of color and sugar spots: slower development of color and sugar spots
Bananas [2]; MAP bags, day number 17 after treatment, held at 14° C.
  acceptability of bananas: still acceptable
Bananas [2]; MAP bags, held in bags at 14° C.
  onset of sugar spots: showed a delay in the onset of sugar spots
Bananas [2]; after 17 days at 14° C., stored at approx. 22° C.
  additional time bananas remained acceptable after removal from MAP bags: three
Bananas [3]; MAP-3: MAP bag, 300 ppb 1-MCP
  Crown Mold: 1.04
  Crown Rot: 1.18
Bananas [3]; [6]
  Crown Mold: 1.00
  Crown Rot: 1.18
Bananas [3]; PE-3-C: PE bag, 300 ppb 1-MCP
  Crown Mold: 1.50
  Crown Rot: 1.72
Bananas [3]; [7]
  Crown Mold: 1.09
  Crown Rot: 1.27
Bananas [4]; MAP and non-zero 1-MCP
  development of sugar spots on holding at 17.8° C.: delayed the development of sugar spots
Bananas [4]; [8]
  color-stage numbers: lower color-stage numbers
  number of sugar spots: lower number of sugar spots
Bananas [5]; 1-MCP only (T-bag)
  Average color stage: 4.71
  Average sugar spot rating: 3
  eating experience: mediocre
  pulp: soft
Bananas [5]; MAP (type D-40) and 1-MCP
  Average color stage: 4.42
  Average sugar spot rating: 1
  eating experience: excellent
  pulp: firm
